The term IC50 denotes the concentration at which inhibition is half-maximal.

Consider 6 compounds from ChEMBL document CHEMBL1124889, “Alfred Burger award address. Bioactive alkaloids. 4. Results of recent investigations with colchicine and physostigmine” (J Med Chem, 1990).

SMILES strings stand for the structures.

T2 sequence (P06276 whole entry): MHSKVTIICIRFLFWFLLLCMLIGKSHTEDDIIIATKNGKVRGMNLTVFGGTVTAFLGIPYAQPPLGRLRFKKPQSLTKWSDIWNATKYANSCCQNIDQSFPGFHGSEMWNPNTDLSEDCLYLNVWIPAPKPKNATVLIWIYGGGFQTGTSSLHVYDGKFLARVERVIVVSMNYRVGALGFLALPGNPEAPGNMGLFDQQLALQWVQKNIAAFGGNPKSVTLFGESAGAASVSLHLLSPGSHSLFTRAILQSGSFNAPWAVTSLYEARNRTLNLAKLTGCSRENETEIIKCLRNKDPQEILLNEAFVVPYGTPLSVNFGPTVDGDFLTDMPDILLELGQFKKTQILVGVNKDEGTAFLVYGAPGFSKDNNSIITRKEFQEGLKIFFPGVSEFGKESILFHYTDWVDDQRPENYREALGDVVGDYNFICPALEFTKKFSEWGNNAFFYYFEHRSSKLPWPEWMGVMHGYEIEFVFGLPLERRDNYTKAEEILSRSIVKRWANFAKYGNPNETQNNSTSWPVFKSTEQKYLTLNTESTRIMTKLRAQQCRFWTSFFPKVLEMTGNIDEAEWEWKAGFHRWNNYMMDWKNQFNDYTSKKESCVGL

The target in one experiment is T1, Acetylcholinesterase (Homo sapiens, UniProt P22303). As to the kind of experiment: Inhibitory activity against Acetylcholinesterase in erythrocyte.
T1 sequence (P22303 whole entry): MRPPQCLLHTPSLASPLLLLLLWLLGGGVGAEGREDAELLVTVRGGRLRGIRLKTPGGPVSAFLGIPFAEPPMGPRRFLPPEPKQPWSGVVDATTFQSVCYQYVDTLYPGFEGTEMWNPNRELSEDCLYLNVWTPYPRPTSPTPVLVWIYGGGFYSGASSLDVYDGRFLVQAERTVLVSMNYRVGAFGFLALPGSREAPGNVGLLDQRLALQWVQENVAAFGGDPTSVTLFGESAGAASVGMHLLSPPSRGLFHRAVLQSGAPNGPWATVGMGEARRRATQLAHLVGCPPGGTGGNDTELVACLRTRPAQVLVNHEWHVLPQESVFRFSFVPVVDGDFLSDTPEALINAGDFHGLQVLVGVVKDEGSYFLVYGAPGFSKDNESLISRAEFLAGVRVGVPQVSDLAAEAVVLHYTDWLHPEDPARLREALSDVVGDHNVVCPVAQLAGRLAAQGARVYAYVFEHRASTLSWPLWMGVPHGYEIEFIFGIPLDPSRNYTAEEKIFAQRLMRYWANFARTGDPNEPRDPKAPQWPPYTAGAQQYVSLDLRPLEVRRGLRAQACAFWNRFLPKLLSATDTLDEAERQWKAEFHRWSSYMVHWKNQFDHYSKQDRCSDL
For `CN(C)C(=O)Oc1ccc2c(c1)[C@]1(C)CCN(C)[C@@H]1N2C`, the IC50 was 210 nM.

On to `CN1CC[C@@]2(C)c3cc(OC(=O)NC(C)(C)C)ccc3N(C)[C@@H]12`, for which half-maximal inhibition (IC50) required 23000 nM.

Consider `CNC(=O)Oc1ccc2c(c1)[C@]1(C)CCN(CCc3ccccc3)[C@@H]1N2C`, for which the half-inhibitory concentration (IC50) stood at 220 nM.

The next experiment concerns the target T2, Cholinesterase (Homo sapiens, UniProt P06276). As to the kind of experiment: Inhibitory activity against Butyrylcholinesterase in plasma. Format: cell-free.
For `C=CCN1CC[C@@]2(C)c3cc(OC(=O)NC)ccc3N(C)[C@@H]12`, the IC50 was determined as 3 nM.

`CN(C)C(=O)Oc1ccc2c(c1)[C@]1(C)CCN(C)[C@@H]1N2C` returned an IC50 of 420 nM.

`CN1CC[C@@]2(C)c3cc(OC(=O)NC(C)(C)C)ccc3N(C)[C@@H]12` gave an IC50 of 2000 nM.

`CCCCCCCCNC(=O)Oc1ccc2c(c1)[C@]1(C)CCN(C)[C@@H]1N2C` had an IC50 of 4 nM.

`COc1ccc(NC(=O)Oc2ccc3c(c2)[C@]2(C)CCN(C)[C@@H]2N3C)cc1` came in with an IC50 of 71 nM.

The target of a further experiment is Acetylcholinesterase (Electrophorus electricus, UniProt O42275). In words: Inhibitory activity against Acetylcholinesterase in electric eel.
Acetylcholinesterase (Electrophorus electricus, UniProt O42275), sequence (O42275 whole entry): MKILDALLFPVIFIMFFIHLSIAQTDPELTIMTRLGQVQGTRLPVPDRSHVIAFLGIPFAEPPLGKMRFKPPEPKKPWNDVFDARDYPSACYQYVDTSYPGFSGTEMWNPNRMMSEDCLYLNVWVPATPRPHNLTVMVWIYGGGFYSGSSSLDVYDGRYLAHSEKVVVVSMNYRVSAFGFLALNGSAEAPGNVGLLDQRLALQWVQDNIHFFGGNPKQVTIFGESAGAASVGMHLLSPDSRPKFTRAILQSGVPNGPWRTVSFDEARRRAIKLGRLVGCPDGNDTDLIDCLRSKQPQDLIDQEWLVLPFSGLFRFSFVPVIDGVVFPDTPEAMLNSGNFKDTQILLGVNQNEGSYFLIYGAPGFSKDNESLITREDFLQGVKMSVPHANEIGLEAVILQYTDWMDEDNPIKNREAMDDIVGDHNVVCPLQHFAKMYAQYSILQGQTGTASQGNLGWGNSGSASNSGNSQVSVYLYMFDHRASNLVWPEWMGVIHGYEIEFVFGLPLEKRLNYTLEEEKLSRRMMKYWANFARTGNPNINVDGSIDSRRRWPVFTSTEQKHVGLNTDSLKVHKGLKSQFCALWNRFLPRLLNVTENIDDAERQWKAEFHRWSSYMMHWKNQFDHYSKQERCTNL
Turning to `CN(C)C(=O)Oc1ccc2c(c1)[C@]1(C)CCN(C)[C@@H]1N2C`, half-maximal inhibition (IC50) was put at 970 nM.

`CN1CC[C@@]2(C)c3cc(OC(=O)NC(C)(C)C)ccc3N(C)[C@@H]12` had an IC50 of over 10000 nM.

The compound `COc1ccc(NC(=O)Oc2ccc3c(c2)[C@]2(C)CCN(C)[C@@H]2N3C)cc1` displayed an IC50 of 1700 nM.

A further experiment has as its target T1, Acetylcholinesterase. As to the kind of experiment: Inhibitory activity against Acetylcholinesterase in cortex. Format: tissue-based.
In the case of `CN(C)C(=O)Oc1ccc2c(c1)[C@]1(C)CCN(C)[C@@H]1N2C`, the half-inhibitory concentration (IC50) was 310 nM.

The compound `CN1CC[C@@]2(C)c3cc(OC(=O)NC(C)(C)C)ccc3N(C)[C@@H]12` displayed an IC50 of 32000 nM.

As to `CNC(=O)Oc1ccc2c(c1)[C@]1(C)CCN(CCc3ccccc3)[C@@H]1N2C`, the midpoint of inhibition, the IC50, lay at 150 nM.

The next experiment addresses T2, Cholinesterase. In words: Inhibitory activity against Butyrylcholinesterase in cortex. Format: tissue-based.
As to `C=CCN1CC[C@@]2(C)c3cc(OC(=O)NC)ccc3N(C)[C@@H]12`, the IC50 turned out to be 16 nM.

Turning to `CN(C)C(=O)Oc1ccc2c(c1)[C@]1(C)CCN(C)[C@@H]1N2C`, the IC50 came to 3000 nM.

Turning to `CN1CC[C@@]2(C)c3cc(OC(=O)NC(C)(C)C)ccc3N(C)[C@@H]12`, 11000 nM corresponded to half-maximal inhibition (IC50).

As to `CCCCCCCCNC(=O)Oc1ccc2c(c1)[C@]1(C)CCN(C)[C@@H]1N2C`, the midpoint of inhibition, the IC50, lay at 9 nM.

Compound `COc1ccc(NC(=O)Oc2ccc3c(c2)[C@]2(C)CCN(C)[C@@H]2N3C)cc1` registered an IC50 of 230 nM.
